PubChem BioAssay AID1259407 (Chemical Carcinogenesis Research Information System (CCRIS), 2018)
Activity calls are given as the source filed them. The rule behind the calls is not given here.

Test system: CCRIS mutagenicity, Ames/micronucleus/aberration tests
Experiment: CCRIS mutagenicity studies
[1] = Test System: AMES SALMONELLA TYPHIMURIUM, Strain/Indicator: TA98, Metabolic Activation: NONE, Method: STANDARD PLATE
[2] = Test System: AMES SALMONELLA TYPHIMURIUM, Strain/Indicator: TA98, Metabolic Activation: RAT, LIVER, S-9, AROCLOR 1254, Method: STANDARD PLATE
[3] = Test System: AMES SALMONELLA TYPHIMURIUM, Strain/Indicator: TA100, Metabolic Activation: NONE, Method: STANDARD PLATE
[4] = Test System: AMES SALMONELLA TYPHIMURIUM, Strain/Indicator: TA100, Metabolic Activation: RAT, LIVER, S-9, AROCLOR 1254, Method: STANDARD PLATE
[5] = Test System: AMES SALMONELLA TYPHIMURIUM, Strain/Indicator: TA1535, Metabolic Activation: NONE, Method: STANDARD PLATE
[6] = Test System: AMES SALMONELLA TYPHIMURIUM, Strain/Indicator: TA1535, Metabolic Activation: RAT, LIVER, S-9, AROCLOR 1254, Method: STANDARD PLATE
[7] = Test System: AMES SALMONELLA TYPHIMURIUM, Strain/Indicator: TA1537, Metabolic Activation: NONE, Method: STANDARD PLATE
[8] = Test System: AMES SALMONELLA TYPHIMURIUM, Strain/Indicator: TA1537, Metabolic Activation: RAT, LIVER, S-9, AROCLOR 1254, Method: STANDARD PLATE
[9] = Test System: AMES SALMONELLA TYPHIMURIUM, Strain/Indicator: TA100, Metabolic Activation: NONE, Method: PREINCUBATION

COc1ccc(-c2coc3cc(O)cc(O)c3c2=O)cc1
mutagenic call (Test System: AMES SALMONELLA TYPHIMURIUM, Strain/Indicator: TA98, Metabolic Activation: HAMSTER, LIVER, S-9, AROCLOR 1254, Method: STANDARD PLATE): inactive; negative
mutagenic call [1]: inactive; negative
mutagenic call [2]: inactive; negative
mutagenic call (Test System: AMES SALMONELLA TYPHIMURIUM, Strain/Indicator: TA100, Metabolic Activation: HAMSTER, LIVER, S-9, AROCLOR 1254, Method: STANDARD PLATE): inactive; negative
mutagenic call [3]: inactive; negative
mutagenic call [4]: inactive; negative
mutagenic call (Test System: AMES SALMONELLA TYPHIMURIUM, Strain/Indicator: TA1535, Metabolic Activation: HAMSTER, LIVER, S-9, AROCLOR 1254, Method: STANDARD PLATE): inactive; negative
mutagenic call [5]: inactive; negative
mutagenic call [6]: inactive; negative
mutagenic call (Test System: AMES SALMONELLA TYPHIMURIUM, Strain/Indicator: TA1537, Metabolic Activation: HAMSTER, LIVER, S-9, AROCLOR 1254, Method: STANDARD PLATE): inactive; negative
mutagenic call [7]: inactive; negative
mutagenic call [8]: inactive; negative
mutagenic call (Test System: AMES SALMONELLA TYPHIMURIUM, Strain/Indicator: TA1538, Metabolic Activation: HAMSTER, LIVER, S-9, AROCLOR 1254, Method: STANDARD PLATE): inactive; negative
mutagenic call (Test System: AMES SALMONELLA TYPHIMURIUM, Strain/Indicator: TA1538, Metabolic Activation: NONE, Method: STANDARD PLATE): inactive; negative
mutagenic call (Test System: AMES SALMONELLA TYPHIMURIUM, Strain/Indicator: TA1538, Metabolic Activation: RAT, LIVER, S-9, AROCLOR 1254, Method: STANDARD PLATE): inactive; negative
mutagenic call (Test System: MOUSE LYMPHOMA, Strain/Indicator: L5178Y (TK+/TK-), Metabolic Activation: NONE, Method: SUSPENSION/PLATE): active; positive. reevaluation of results: inconclusive
mutagenic call (Test System: MOUSE LYMPHOMA, Strain/Indicator: L5178Y (TK+/TK-), Metabolic Activation: RAT, LIVER, S-9, AROCLOR 1254, Method: SUSPENSION/PLATE): active; positive. reevaluation of results: positive
mutagenic call (Test System: SYRIAN HAMSTER EMBRYO CELLS, Strain/Indicator: HPRT/6-THIOGUANINE, Metabolic Activation: NONE, Method: PLATE): inactive; negative

Cn1cnc2c(N)ncnc21
mutagenic call (Test System: AMES SALMONELLA TYPHIMURIUM, Strain/Indicator: TA97, Metabolic Activation: NONE, Method: STANDARD PLATE): inactive; negative
mutagenic call (Test System: AMES SALMONELLA TYPHIMURIUM, Strain/Indicator: TA97, Metabolic Activation: RAT, LIVER, S-9, AROCLOR 1254, Method: STANDARD PLATE): inactive; negative
mutagenic call [1]: inactive; negative
mutagenic call [2]: active; positive
mutagenic call [3]: inactive; negative
mutagenic call [4]: inactive; negative

CC(O)CN(CC(O)CO)N=O (stereo unspecified)
mutagenic call (Test System: AMES SALMONELLA TYPHIMURIUM, Strain/Indicator: TA100, Metabolic Activation: HAMSTER, LIVER, S-9, 3-METHYLCHOLANTHRENE, Method: PREINCUBATION): inactive; negative
mutagenic call (Test System: AMES SALMONELLA TYPHIMURIUM, Strain/Indicator: TA100, Metabolic Activation: HAMSTER, LIVER, S-9, PHENOBARBITAL, Method: PREINCUBATION): active; positive
mutagenic call (Test System: AMES SALMONELLA TYPHIMURIUM, Strain/Indicator: TA100, Metabolic Activation: HAMSTER, LIVER, S-9, Method: PREINCUBATION): inactive; negative
mutagenic call (Test System: AMES SALMONELLA TYPHIMURIUM, Strain/Indicator: TA100, Metabolic Activation: MOUSE, LIVER, S-9, 3-METHYLCHOLANTHRENE, Method: PREINCUBATION): inactive; negative
mutagenic call (Test System: AMES SALMONELLA TYPHIMURIUM, Strain/Indicator: TA100, Metabolic Activation: MOUSE, LIVER, S-9, PHENOBARBITAL, Method: PREINCUBATION): active; positive
mutagenic call (Test System: AMES SALMONELLA TYPHIMURIUM, Strain/Indicator: TA100, Metabolic Activation: MOUSE, LIVER, S-9, Method: PREINCUBATION): inactive; negative
mutagenic call [9]: inactive; negative
mutagenic call (Test System: AMES SALMONELLA TYPHIMURIUM, Strain/Indicator: TA100, Method: PREINCUBATION): active; positive

COc1ccc(/C(=C/C(=O)N2CCOCC2)c2ccc(F)cc2)cc1OC
mutagenic call (End Point: IN VITRO CHROMOSOMAL ABERRATIONS, Test System: CHINESE HAMSTER LUNG (CHL) CELLS, Metabolic Activation: NONE): inactive; negative
mutagenic call (End Point: IN VITRO CHROMOSOMAL ABERRATIONS, Test System: CHINESE HAMSTER LUNG (CHL) CELLS, Metabolic Activation: S-9): active; positive (structural changes)

Nc1ccc(Oc2ccc([N+](=O)[O-])cc2)cc1
mutagenic call (Test System: AMES SALMONELLA TYPHIMURIUM, Strain/Indicator: TA98(NR), Metabolic Activation: NONE, Method: PREINCUBATION): inactive; negative
mutagenic call (Test System: AMES SALMONELLA TYPHIMURIUM, Strain/Indicator: TA98(NR), Metabolic Activation: RAT, LIVER, S-9, AROCLOR 1254, Method: PREINCUBATION): active; positive
mutagenic call (Test System: AMES SALMONELLA TYPHIMURIUM, Strain/Indicator: TA98, Metabolic Activation: NONE, Method: PREINCUBATION): active; positive
mutagenic call (Test System: AMES SALMONELLA TYPHIMURIUM, Strain/Indicator: TA98, Metabolic Activation: RAT, LIVER, S-9, AROCLOR 1254, Method: PREINCUBATION): active; positive
mutagenic call (Test System: AMES SALMONELLA TYPHIMURIUM, Strain/Indicator: TA100(NR), Metabolic Activation: NONE, Method: PREINCUBATION): active; positive
mutagenic call (Test System: AMES SALMONELLA TYPHIMURIUM, Strain/Indicator: TA100(NR), Metabolic Activation: RAT, LIVER, S-9, AROCLOR 1254, Method: PREINCUBATION): active; positive
mutagenic call [9]: active; positive
mutagenic call (Test System: AMES SALMONELLA TYPHIMURIUM, Strain/Indicator: TA100, Metabolic Activation: RAT, LIVER, S-9, AROCLOR 1254, Method: PREINCUBATION): active; positive

CNN(C)c1ccn([C@@H]2O[C@H](CO)[C@@H](O)[C@H]2O)c(=O)n1
mutagenic call (Test System: CHINESE HAMSTER V-79, Strain/Indicator: V-79/6-THIOGUANINE, Metabolic Activation: NONE, Method: REPLATING): inactive; negative

C[C@]12CC[C@H](OC(=O)/C=C/c3cccc(N(CCCl)CCCl)c3)CC1=CC[C@@H]1[C@@H]2CC[C@]2(C)NC(=O)CC[C@@H]12
mutagenic call [1]: inactive; negative
mutagenic call [2]: inactive; negative
mutagenic call [3]: inactive; negative
mutagenic call [4]: inactive; negative
mutagenic call [5]: active; positive
mutagenic call [6]: active; positive
mutagenic call [7]: inactive; negative
mutagenic call [8]: inactive; negative
